Here are results for 28 compounds from patent US9562033B2, “Inhibitors of viral replication, their process of preparation and their therapeutical uses” (LABORATOIRE BIODIM, priority 2012, dated 2017).

Usually EC50 stands for the concentration at which the effect is half-maximal. Low values mean a more potent agent, high ones a less potent agent.

This experiment deals with NL4-3 strain of HIV-1. The experiment in a line: HIV-1 replication inhibition: cyto-protection of MT4 cells infected with NL4-3 virus (CellTiter-Glo viability assay). It is filed as cell-based. Particulars: Human immunodeficiency virus 1, NL43, 120 h, concentration leading to 50% of cyto-protection, 5 days incubation. As to the method: The antiviral activity, particularly against HIV, of compounds according to the invention is evaluated by the protocol described below.
Preparation of Virus Stock of the NL4-3 Strain of HIV-1
The virus was prepared as described in Lopez et al (Lopez et al, Proc Natl Acad Sci USA., 2006, 103(40):14947-52, by transfecting 2×10^6 293 T cells (CRL-1573, ATCC) with following modifications: 6 μg of NL4-3 proviral DNA molecular clone were mixed with Fugene 6 transfection reagent from Roche, and used according to manufacturer's instructions. Forty eight hours later, transfected cell supernatants were harvested, filtered through 0.45-μm-pore-size filters, quantified for HIV-1 p24 antigen by using a Innotest HIV antigen mAb assay (Ingen) according to manufacturer's instructions, and used in infection experiments.
Preparation of Compounds:
Serial dilutions of compounds to be tested were prepared in complete RPMI medium from 10 mM DMSO stock solutions, and distributed in a volume of 20 µl in 96 well Falcon 353072 Microtest™ tissue culture plate, in order to get 0.5% DMSO final concentration in each well, after the addition of infected cells. Control wells contained also 0.5% DMSO final concentration but no compound.
MT4 cells (from the NIH AIDS Research and Reference Reagent Program) in RPMI complete medium were counted (10×10^6 cells per well in Falcon 353047 Multiwell™ 24 well) and infected for 2 hours at 37°, at a multiplicity of infection (moi) of 0.0001-0.00001. Cells were then centrifuged 3 min at 3000 rpm, and washed two times in 1 ml PBS to remove viruses that have not entered in cells. Infected cells were resuspended in complete RPMI at 1.25×10^6 cells/ml, and 80 µl of infected cells were distributed in each well containing compounds to be tested or control wells. The plates were then incubated at 37° for 5 days.
Assay Used to Measure the Inhibition of HIV Replication by the Compounds
(according to Gregg S. Jones et al., Antimicrobial Agents and Chemotherapy, 2009, 53 (3): 1194-1203).
After 5 days of incubation, […] of CellTiter-Glo reagent (Promega Biosciences, Inc., Madison Wis., USA) were added to each well. Cell lysis was carried out at room temperature during 10 min, 150 μl of lysates were transferred in Packard Optiplate 96 well, and luminescence was read on a Fluoroskan (Thermo Scientific).
On the technique in general: Cellular ATP, detected with luciferase, serves as a proxy for viable cell number.
`Cc1sc(-c2ccnc3ccccc23)c(-c2ccc3c(c2)CCCO3)c1C(OC(C)(C)C)C(=O)O` (stereo not shown) [Example 15, 2-(tert-butoxy)-2-[4-(3,4-dihydro-2H-1-benzopyran-6-yl)-2-methyl-5-(quinolin-4-yl)thiophen-3-yl]acetic acid] registered an EC50 of 410 nM.
The compound `Cc1sc(-c2ccoc2)c(-c2ccc3c(c2)CCCO3)c1C(OC(C)(C)C)C(=O)O` (stereo not shown) [Example 16, 2-(tert-butoxy)-2-[4-(3,4-dihydro-2H-1-benzopyran-6-yl)-5-(furan-3-yl)-2-methylthiophen-3-yl]acetic acid] showed an EC50 of 820 nM.
`Cc1sc(-c2ccnc(OCc3ccccc3)c2)c(-c2ccc3c(c2)CCCO3)c1C(OC(C)(C)C)C(=O)O` (stereo not shown) [Example 17, 2-{5-[2-(benzyloxy)pyridin-4-yl]-4-(3,4-dihydro-2H-1-benzopyran-6-yl)-2-methylthiophen-3-yl}-2-(tert-butoxy)acetic acid]: the 50% effective concentration (EC50) stood at 650 nM.
The result for `Cc1sc(-c2cncnc2)c(-c2ccc3c(c2)CCCO3)c1C(OC(C)(C)C)C(=O)O` (stereo not shown) [Example 18, 2-(tert-butoxy)-2-[4-(3,4-dihydro-2H-1-benzopyran-6-yl)-2-methyl-5-(pyrimidin-5-yl)thiophen-3-yl]acetic acid] reads 260 nM; that for `Cc1sc(-c2ccc(=O)n(C)c2)c(-c2ccc3c(c2)CCCO3)c1C(OC(C)(C)C)C(=O)O` (stereo not shown) [Example 19, 2-(tert-butoxy)-2-[4-(3,4-dihydro-2H-1-benzopyran-6-yl)-2-methyl-5-(1-methyl-6-oxo-1,6-dihydropyridin-3-yl)thiophen-3-yl]acetic acid], 430 nM.
Under `Cc1sc(-c2ccsc2)c(-c2ccc3c(c2)CCCO3)c1C(OC(C)(C)C)C(=O)O` (stereo not shown) [Example 20, 2-(tert-butoxy)-2-[4-(3,4-dihydro-2H-1-benzopyran-6-yl)-2-methyl-5-(thiophen-3-yl)thiophen-3-yl]acetic acid] stands 220 nM; under `CC(=O)NCc1ccc(-c2sc(C)c(C(OC(C)(C)C)C(=O)O)c2-c2ccc3c(c2)CCCO3)cc1` (stereo not shown) [Example 21, 2-(tert-butoxy)-2-[4-(3,4-dihydro-2H-1-benzopyran-6-yl)-5-[4-(acetamidomethyl)phenyl]-2-methylthiophen-3-yl]acetic acid], 580 nM.
The result for `Cc1sc(-c2ccc(C(N)=O)cc2)c(-c2ccc3c(c2)CCCO3)c1C(OC(C)(C)C)C(=O)O` (stereo not shown) [Example 22, 2-(tert-butoxy)-2-[5-(4-carbamoylphenyl)-4-(3,4-dihydro-2H-1-benzopyran-6-yl)-2-methylthiophen-3-yl]acetic acid] reads 300 nM; that for `Cc1sc(-c2cccs2)c(-c2ccc3c(c2)CCCO3)c1C(OC(C)(C)C)C(=O)O` (stereo not shown) [Example 23, 2-(tert-butoxy)-2-[4-(3,4-dihydro-2H-1-benzopyran-6-yl)-2-methyl-5-(thiophen-2-yl)thiophen-3-yl]acetic acid], 170 nM; that for `Cc1sc(-c2cnn(C)c2)c(C2=CCC(C)(C)CC2)c1C(OC(C)(C)C)C(=O)O` (stereo not shown) [Example 24, 2-(tert-butoxy)-2-[4-(4,4-dimethylcyclohex-1-en-1-yl)-2-methyl-5-(N-methylpyrazol-4-yl)thiophen-3-yl]acetic acid], 310 nM.
Turning to `Cc1sc(-c2cncnc2)c(C2=CCC(C)(C)CC2)c1C(OC(C)(C)C)C(=O)O` (stereo not shown) [Example 25, 2-(tert-butoxy)-2-[4-(4,4-dimethylcyclohex-1-en-1-yl)-2-methyl-5-(pyrimidin-5-yl)thiophen-3-yl]acetic acid], the EC50 is 190 nM.
Turning to `Cc1sc(-c2cnn(C)c2)c(C2=CCC(C(C)C)CC2)c1C(OC(C)(C)C)C(=O)O` (stereo not shown) [Example 26, 2-(tert-butoxy)-2-{2-methyl-4-[4-(propan-2-yl)cyclohex-1-en-1-yl]-5-(N-methylpyrazol-4-yl)thiophen-3-yl}acetic acid], a half-maximal response (EC50) required 830 nM.
In turn, `Cc1sc(-c2ccc(C(N)=O)cc2)c(C2=CCC(C)(C)CC2)c1C(OC(C)(C)C)C(=O)O` (stereo not shown) [Example 27, 2-(tert-butoxy)-2-[5-(4-carbamoylphenyl)-4-(4,4-dimethylcyclohex-1-en-1-yl)-2-methylthiophen-3-yl]acetic acid] came in with an EC50 of 90 nM.
The result for `Cc1sc(-c2ccncc2)c(C2=CCC(F)(F)CC2)c1C(OC(C)(C)C)C(=O)O` (stereo not shown) [Example 28, 2-(tert-butoxy)-2-[2-methyl-4-(4,4-difluorocyclohex-1-en-1-yl)-5-(pyridin-4-yl)thiophen-3-yl]acetic acid] reads 750 nM; that for `CNC(=O)c1ccc(-c2sc(C)c(C(OC(C)(C)C)C(=O)O)c2C2=CCC(C)(C)CC2)cc1` (stereo not shown) [Example 29, 2-(tert-butoxy)-2-[4-(4,4-dimethylcyclohex-1-en-1-yl)-2-methyl-5-(N-methyl-4-aminocarbonylphenyl)thiophen-3-yl]acetic acid], 90 nM; that for `Cc1sc(-c2ccc(=O)n(C)c2)c(C2=CCC(C)(C)CC2)c1C(OC(C)(C)C)C(=O)O` (stereo not shown) [Example 30], 70 nM.
Under `Cc1sc(-c2cccc(C(N)=O)c2)c(C2=CCC(C)(C)CC2)c1C(OC(C)(C)C)C(=O)O` (stereo not shown) [Example 31, 2-(tert-butoxy)-2-[4-(4,4-dimethylcyclohex-1-en-1-yl)-2-methyl-5-(aminocarbonylphen-3-yl)thiophen-3-yl]acetic acid] stands 40 nM; under `Cc1sc(-c2ccc(S(N)(=O)=O)cc2)c(C2=CCC(C)(C)CC2)c1C(OC(C)(C)C)C(=O)O` (stereo not shown) [Example 32, 2-(tert-butoxy)-2-[4-(4,4-dimethylcyclohex-1-en-1-yl)-2-methyl-5-(benzenesulfonamide-4-yl)thiophen-3-yl]acetic acid], 430 nM; under `CC(=O)Nc1ccc(-c2sc(C)c(C(OC(C)(C)C)C(=O)O)c2C2=CCC(C)(C)CC2)cc1` (stereo not shown) [Example 33, 2-(tert-butoxy)-2-[4-(4,4-dimethylcyclohex-1-en-1-yl)-2-methyl-5-(acetamidophen-4-yl)thiophen-3-yl]acetic acid], 230 nM.
The result for `Cc1sc(-c2ccc(=O)n(Cc3ccccc3)c2)c(C2=CCC(C)(C)CC2)c1C(OC(C)(C)C)C(=O)O` (stereo not shown) [Example 34] reads 750 nM.
With `CCCn1cc(-c2sc(C)c(C(OC(C)(C)C)C(=O)O)c2C2=CCC(C)(C)CC2)ccc1=O` (stereo not shown) [Example 35], the EC50 was found to be 340 nM.
Under `CCCNC(=O)c1ccc(-c2sc(C)c(C(OC(C)(C)C)C(=O)O)c2C2=CCC(C)(C)CC2)cc1` (stereo not shown) [Example 36, 2-(tert-butoxy)-2-[4-(4,4-dimethylcyclohex-1-en-1-yl)-2-methyl-5-[4-(propylcarbamoyl)phenyl]thiophen-3-yl]acetic acid] stands 100 nM.
The result for `Cc1sc(-c2ccc(=O)n(CC3CC3)c2)c(C2=CCC(C)(C)CC2)c1C(OC(C)(C)C)C(=O)O` (stereo not shown) [Example 37] reads 320 nM; that for `CC(C)(C)OC(C(=O)O)c1c(CO)sc(-c2ccncc2)c1-c1ccc2c(c1)CCCO2` (stereo not shown) [Example 38, 2-(tert-butoxy)-2-[4-(3,4-dihydro-2H-1-benzopyran-6-yl)-2-(hydroxymethyl)-5-(pyridin-4-yl)thiophen-3-yl]acetic acid], 2300 nM; that for `Cc1sc(-c2ccncc2)c(-c2cc(F)c3c(c2C)CCCO3)c1C(OC(C)(C)C)C(=O)O` (stereo not shown) [Example 39, 2-(tert-butoxy)-2-[4-(8-fluoro-5-methyl-3,4-dihydro-2H-1-benzopyran-6-yl)-2-methyl-5-(pyridin-4-yl)thiophen-3-yl]acetic acid], 730 nM.
The result for `Cc1sc(-c2ccncc2)c(-c2cc(F)c3c(c2)CCCO3)c1C(OC(C)(C)C)C(=O)O` (stereo not shown) [Example 40, 2-(tert-butoxy)-2-[4-(8-fluoro-3,4-dihydro-2H-1-benzopyran-6-yl)-2-methyl-5-(pyridin-4-yl)thiophen-3-yl]acetic acid] reads 360 nM.
`CNC(=O)c1cccc(-c2sc(C)c(C(OC(C)(C)C)C(=O)O)c2C2=CCC(C)(C)CC2)c1` (stereo not shown) [Example 41, 2-(tert-butoxy)-2-[4-(4,4-dimethylcyclohex-1-en-1-yl)-2-methyl-5-(methylaminocarbonylphen-3-yl)thiophen-3-yl]acetic acid] registered an EC50 of 50 nM.
In turn, `CCCNC(=O)c1cccc(-c2sc(C)c(C(OC(C)(C)C)C(=O)O)c2C2=CCC(C)(C)CC2)c1` (stereo not shown) [Example 42, 2-(tert-butoxy)-2-[4-(4,4-dimethylcyclohex-1-en-1-yl)-2-methyl-5-[3-(propylcarbamoyl)phenyl]thiophen-3-yl]acetic acid] registered an EC50 of 40 nM.
